According to US20100267561A1, “HERBICIDAL PYRIDAZINONE DERIVATIVES” (priority 2007, published 2010):
Read-outs that look alike come from different tables or passages of the source.

Key:
Assay in all cases: Test B pre-/postemergence plant response
Format in all cases: in vivo
[1] = test system: Italian ryegrass (Lolium multiflorum); conditions: Preemergence; 16 g ai/ha; scale 0 to 100
Text: (§1) Seeds of plant species selected from blackgrass (Alopecurus myosuroides), downy bromegrass (Bromus tectorum), green foxtail (Setaria viridis), Italian ryegrass (Lolium multiflorum), wheat (Triticum aestivum), wild oat (Avena fatua), catchweed bedstraw (Galium aparine), bermudagrass (Cynodon dactylon), surinam grass (Brachiaria decumbens), cocklebur (Xanthium strumarium), corn (Zea mays), large crabgrass (Digitaria sanguinalis), woolly cupgrass (Eriochloa villosa), giant foxtail (Setaria faberii), goosegrass (Eleusine indica), johnsongrass (Sorghum halepense), kochia (Kochia scoparia), lambsquarters (Chenopodium album), morningglory (Ipomoea coccinea), eastern black (E.B.) nightshade (Solanum ptycanthum), yellow nutsedge (Cyperus esculentus), pigweed (Amaranthus retroflexus), common ragweed (Ambrosia elation), Russian thistle (Salsola iberica), soybean (Glycine max), common (oilseed) sunflower (Helianthus annuus), and velvetleaf (Abutilon theophrasti) were planted and treated preemergence with test chemicals formulated in a non-phytotoxic solvent mixture which included a surfactant.
(§2) At the same time, plants selected from these crop and weed species and also winter barley (Hordeum vulgare), canarygrass (Phalaris minor), chickweed (Stellaria media) and windgrass (Apera spica-venti) were treated with postemergence applications of some of the test chemicals formulated in the same manner. Plants ranged in height from 2 to 18 cm (1- to 4-leaf stage) for postemergence treatments.
(§3) Plant species in the flooded paddy test consisted of rice (Oryza sativa), umbrella sedge (Cyperus difformis), ducksalad (Heteranthera limosa) and barnyardgrass (Echinochloa crus-galli) grown to the 2-leaf stage for testing. At time of treatment, test pots were flooded to 3 cm above the soil surface, treated by application of test compounds directly to the paddy water, and then maintained at that water depth for the duration of the test. Treated plants and controls were maintained in a greenhouse for 13 to 15 days, after which time all species were compared to controls and visually evaluated. Plant response ratings, summarized in Table B, are based on a scale of 0 to 100 where 0 is no effect and 100 is complete control. A dash (-) response means no test result.

[2] = test system: eastern black (E.B.) nightshade (Solanum ptycanthum); conditions: Preemergence
Text: as §1, §2, §3

[3] = test system: pigweed (Amaranthus retroflexus); conditions: for pest or weed control at 31 g/ha / pest or weed control at 62 g/ha: Amaranthus retroflexus, read-out: Plant response rating, Pigweed; for pest or weed control at 31 g/ha: 31 g ai/ha; for pest or weed control at 62 g/ha: 62 g ai/ha, 100 complete control
Text: as §1, §2, §3

[4] = test system: woolly cupgrass (Eriochloa villosa); conditions: for pest or weed control at 31 g/ha: 31 g ai/ha; for pest or weed control at 62 g/ha: 62 g ai/ha, 100 complete control
Text: as §1, §2, §3

[5] = test system: johnsongrass (Sorghum halepense); conditions: for pest or weed control at 31 g/ha / pest or weed control at 62 g/ha: Sorghum halepense, read-out: Plant response rating, Johnsongrass; for pest or weed control at 31 g/ha: 31 g ai/ha; for pest or weed control at 62 g/ha: 62 g ai/ha, 100 complete control
Text: as §1, §2, §3

[6] = test system: morningglory (Ipomoea coccinea); conditions: for pest or weed control at 31 g/ha / pest or weed control at 62 g/ha: Ipomoea, read-out: Plant response rating, Morningglory; for pest or weed control at 31 g/ha: 31 g ai/ha; for pest or weed control at 62 g/ha: 62 g ai/ha, 100 complete control
Text: as §1, §2, §3

[7] = test system: green foxtail (Setaria viridis); conditions: for pest or weed control at 31 g/ha: 31 g ai/ha; for pest or weed control at 62 g/ha: 62 g ai/ha, 100 complete control
Text: as §1, §2, §3

[8] = test system: velvetleaf (Abutilon theophrasti); conditions: for pest or weed control at 31 g/ha / pest or weed control at 62 g/ha: Abutilon theophrasti, read-out: Plant response rating, Velvetleaf; for pest or weed control at 31 g/ha: 31 g ai/ha; for pest or weed control at 62 g/ha: 62 g ai/ha, 100 complete control
Text: as §1, §2, §3

[9] = 8 g ai/ha, postemergence, 0-100 scale
[10] = 16 g ai/ha, postemergence, 0-100 scale
[11] = post-emergence, Postemergence, scale 0 to 100
[12] = post-emergence, Postemergence, scale 0 to 100, 0 no effect
[13] = pre-emergence, Preemergence, scale 0 to 100 (0 no effect, 100 complete control)
[14] = pre-emergence, Preemergence, 0 to 100 scale, 0 no effect
[15] = Preemergence, 8 g ai/ha, scale 0 to 100 (0 no effect, 100 complete control)
[16] = Preemergence, 16 g ai/ha, scale 0 to 100

## Cc1nn(C)c(=O)c(-c2nc(-c3ccc(Cl)cc3)sc2C)c1O [Compound 79, 4-[2-(4-chlorophenyl)-5-methyl-4-thiazolyl]-5-hydroxy-2,6-dimethyl-3(2H)-pyridazinone]
[1]
  Ryegrass, Italian plant response rating: 90
[2]; 8 g ai/ha, scale 0 to 100 (0 no effect, 100 complete control)
  Nightshade, E. B. plant response rating: 0
[2]; 16 g ai/ha, scale 0 to 100
  Nightshade, E. B. plant response rating: 0
[2]; Solanum, pre-emergence, 62 g ai/ha, 0 to 100 scale, 0 no effect, 100 complete control, read-out: Plant response rating, Nightshade, E. B.
  pest or weed control at 62 g/ha: 0%
[3]; [9]
  Pigweed plant response rating: 0
[3]; [10]
  Pigweed plant response rating: 0
[3]; [11]
  pest or weed control at 31 g/ha: 0%
[3]; [12]
  pest or weed control at 62 g/ha: 0%
[3]; [13]
  pest or weed control at 31 g/ha: 0%
[3]; [14]
  pest or weed control at 62 g/ha: 0%
[3]; [15]
  Pigweed plant response rating: 0
[3]; [16]
  Pigweed plant response rating: 0
[4]; [9]
  Cupgrass, Woolly plant response rating: 60
[4]; Eriochloa villosa, post-emergence, Postemergence, 16 g ai/ha, scale 0 to 100, read-out: Plant response rating, Cupgrass, Woolly
  pest or weed control at 16 g/ha: 65%
[4]; Eriochloa villosa, post-emergence, Postemergence, scale 0 to 100, read-out: Plant response rating, Cupgrass, Woolly
  pest or weed control at 31 g/ha: 75%
[4]; Eriochloa villosa, post-emergence, Postemergence, scale 0 to 100, 0 no effect, read-out: Plant response rating, Cupgrass, Woolly
  pest or weed control at 62 g/ha: 80%
[4]; Eriochloa villosa, pre-emergence, Preemergence, scale 0 to 100 (0 no effect, 100 complete control), read-out: Plant response rating, Cupgrass, Woolly
  pest or weed control at 31 g/ha: 100%
[4]; Eriochloa villosa, pre-emergence, Preemergence, 0 to 100 scale, 0 no effect, read-out: Plant response rating, Cupgrass, Woolly
  pest or weed control at 62 g/ha: 100%
[4]; [15]
  Cupgrass, Woolly plant response rating: 20
[4]; [16]
  Cupgrass, Woolly plant response rating: 65
[5]; [9]
  Johnsongrass plant response rating: 85
[5]; [10]
  Johnsongrass plant response rating: 90
[5]; [15]
  Johnsongrass plant response rating: 65
[5]; [16]
  Johnsongrass plant response rating: 85
[5]; [11]
  pest or weed control at 31 g/ha: 100%
[5]; [12]
  pest or weed control at 62 g/ha: 100%
[5]; [13]
  pest or weed control at 31 g/ha: 100%
[5]; [14]
  pest or weed control at 62 g/ha: 100%
[6]; [9]
  Morningglory plant response rating: 0
[6]; [10]
  Morningglory plant response rating: 0
[6]; [11]
  pest or weed control at 31 g/ha: 0%
[6]; [12]
  pest or weed control at 62 g/ha: 0%
[6]; [13]
  pest or weed control at 31 g/ha: 0%
[6]; [14]
  pest or weed control at 62 g/ha: 0%
[6]; [15]
  Morningglory plant response rating: 0
[6]; [16]
  Morningglory plant response rating: 0
[7]; [9]
  Foxtail, Green plant response rating: 75
[7]; [15]
  Foxtail, Green plant response rating: 30
[7]; [16]
  Foxtail, Green plant response rating: 60
[7]; Setaria viridis, post-emergence, Postemergence, 16 g ai/ha, scale 0 to 100, read-out: Plant response rating, Foxtail, Green
  pest or weed control at 16 g/ha: 85%
[7]; Setaria viridis, post-emergence, Postemergence, scale 0 to 100, read-out: Plant response rating, Foxtail, Green
  pest or weed control at 31 g/ha: 98%
[7]; Setaria viridis, post-emergence, Postemergence, scale 0 to 100, 0 no effect, read-out: Plant response rating, Foxtail, Green
  pest or weed control at 62 g/ha: 98%
[7]; Setaria viridis, pre-emergence, Preemergence, scale 0 to 100 (0 no effect, 100 complete control), read-out: Plant response rating, Foxtail, Green
  pest or weed control at 31 g/ha: 98%
[7]; Setaria viridis, pre-emergence, Preemergence, 0 to 100 scale, 0 no effect, read-out: Plant response rating, Foxtail, Green
  pest or weed control at 62 g/ha: 100%
[8]; [9]
  Velvetleaf plant response rating: 0
[8]; [10]
  Velvetleaf plant response rating: 0
[8]; [11]
  pest or weed control at 31 g/ha: 0%
[8]; [12]
  pest or weed control at 62 g/ha: 0%
[8]; [13]
  pest or weed control at 31 g/ha: 0%
[8]; [14]
  pest or weed control at 62 g/ha: 0%
[8]; [15]
  Velvetleaf plant response rating: 0
[8]; [16]
  Velvetleaf plant response rating: 0
